The target in one assay is T1, dog MET (dMET-His) (Canis lupus familiaris, UniProt Q75ZY9).
T1 construct: His; purchased Sino 70008-D08H
Description: SPR binding affinity of anti-MET antibodies to dMET-His. The source says:
(§1) In another similar experiment, the binding affinity of anti-MET antibodies M-6D12, M-6E6, M-7D3, M-819, M-8E2 and M-8H10 to hMET-His, fasMET-His or dMET-His (His-tagged dog MET, Sino, Cat #:70008-D08H) was verified. Telisotuzumab analog was used as a positive control.

Assay [1] concerns the target T2, human MET (hMET-His) (Homo sapiens, UniProt P08581).
T2 construct: His; purchased ACROBiosystems Inc. MET-H5227
Briefly: SPR binding affinity of anti-MET antibodies to hMET-His.
From the text: as §1

For the next assay, the system named is SNU-5 cells. Description: Internalization (endocytosis) in SNU-5 cells, pHAb secondary antibody, flow cytometry. Type of assay: cell-based, human. The following applies: 2.5 μg/ml, 1 hour. The protocol:
Anti-EGFR antibodies (2.5 μg/ml) and pHAb-Goat Anti-Human IgG secondary antibody (Promega (Beijing) Biotech Co., Ltd., Cat #: G9845) were added to SNU-5 cells (ATCC, Reference No.: CRL-5973). After incubating at 37° C. and 5% CO2 for 1 hour, the cells were centrifuged and washed with FACS buffer. The mean fluorescence intensity (MFI) values were measured using a flow cytometer, and the endocytosis rates of the anti-EGFR antibodies were calculated.
Anti-MET antibodies ([…]) and pHAb-GoatAnti-Human IgG Antibody (Promega (Beijing) Biotech Co., Ltd., Cat #: G9845) were added to SUN-5 cells. After incubating for 1 hour, the cells were centrifuged and washed with FACS buffer. The MFI values were measured using a flow cytometer, and the endocytosis rates of the anti-MET antibodies were calculated.
The secondary antibody used in the experiment was: pHAb-AffiniPure Fab Fragment Goat Anti-Human IgG (Jackson Immuno Research, Cat #: 109-007-008).

In assay [2] the target is monkey EGFR (fasEGFR-His). Description: SPR binding activity of anti-EGFR/MET bispecific antibodies to fasEGFR-His. The settings on record: Table 15. The source says: (§2) Dissociation was monitored for 400 seconds.
The test system of assay [3] is monkey MET (fasMET-His). Briefly: SPR binding affinity of anti-MET antibodies to fasMET-His.
monkey MET (fasMET-His), sequence (as listed by the source): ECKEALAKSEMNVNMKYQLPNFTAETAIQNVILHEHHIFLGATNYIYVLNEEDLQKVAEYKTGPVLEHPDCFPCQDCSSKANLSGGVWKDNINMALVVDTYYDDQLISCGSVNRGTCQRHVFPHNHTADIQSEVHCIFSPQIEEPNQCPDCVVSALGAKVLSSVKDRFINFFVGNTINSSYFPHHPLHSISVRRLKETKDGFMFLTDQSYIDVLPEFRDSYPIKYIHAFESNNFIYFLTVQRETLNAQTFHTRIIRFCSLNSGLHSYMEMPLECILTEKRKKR
monkey MET (fasMET-His), sequence (as listed by the source): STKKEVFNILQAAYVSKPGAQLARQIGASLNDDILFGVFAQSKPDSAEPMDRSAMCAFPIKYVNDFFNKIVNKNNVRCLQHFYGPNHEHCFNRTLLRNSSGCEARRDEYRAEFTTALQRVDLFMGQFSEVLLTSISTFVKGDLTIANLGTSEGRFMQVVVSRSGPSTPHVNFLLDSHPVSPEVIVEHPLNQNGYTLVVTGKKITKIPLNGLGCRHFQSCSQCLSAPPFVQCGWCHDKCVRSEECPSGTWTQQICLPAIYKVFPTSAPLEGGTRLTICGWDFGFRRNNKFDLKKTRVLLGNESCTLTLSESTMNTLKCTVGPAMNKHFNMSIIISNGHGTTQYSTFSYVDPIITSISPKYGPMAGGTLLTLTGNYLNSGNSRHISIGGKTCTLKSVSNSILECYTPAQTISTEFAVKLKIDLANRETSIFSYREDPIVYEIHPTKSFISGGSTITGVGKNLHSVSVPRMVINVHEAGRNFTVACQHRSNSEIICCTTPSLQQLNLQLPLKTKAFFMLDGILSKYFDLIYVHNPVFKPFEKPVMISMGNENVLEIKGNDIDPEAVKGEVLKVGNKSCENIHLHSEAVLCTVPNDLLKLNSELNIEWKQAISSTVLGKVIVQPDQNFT
From the text: as §1

The subject of the next assay is NCI-H292 cells. Briefly: Internalization of antibodies targeting EGFR and/or MET in NCI-H292 cells. The class given is cell-based, human. The settings on record: NCI-H292, 1 hour. The protocol:
(§3) Anti-EGFR antibodies, anti-MET antibodies, or anti-EGFR/MET bispecific antibodies, together with the pHAb-Goat anti-human IgG secondary antibody were added to NCI-H1975 cells (ATCC, Reference No.: CRL-5908), HCC827 cells (ATCC, Reference No.: CRL-2868) and NCI-H292 (ATCC, Reference No.: CRL-1848) cells, respectively, and incubated for 1 hour. The cells were centrifuged and washed with FACS buffer. MFI was measured using a flow cytometer. Endocytosis rates of antibodies were calculated. For isotype control (ISO), an antibody targeting an irrelevant target protein was used.

Another assay has as its target human EGFR (hEGFR-His) (Homo sapiens, UniProt P00533). Description: SPR binding activity of anti-EGFR/MET bispecific antibodies to hEGFR-His. The settings on record: Table 15.
Another assay relates to HCC827 cells. Description: Internalization of antibodies targeting EGFR and/or MET in HCC827 cells. The following applies: HCC827, 1 hour. The class given is cell-based, human. The protocol:
as §3

Assay [4] deals with monkey MET (fasMET-His). Description: SPR binding activity of anti-EGFR/MET bispecific antibodies to fasMET-His. The following applies: Table 15.
From the text: as §2

Assay [5] deals with T2, human MET (hMET-His). Briefly: SPR binding activity of anti-EGFR/MET bispecific antibodies to hMET-His. The following applies: Table 15.
From the text: as §2

T2 sequence (P08581 25-932 limits assumed): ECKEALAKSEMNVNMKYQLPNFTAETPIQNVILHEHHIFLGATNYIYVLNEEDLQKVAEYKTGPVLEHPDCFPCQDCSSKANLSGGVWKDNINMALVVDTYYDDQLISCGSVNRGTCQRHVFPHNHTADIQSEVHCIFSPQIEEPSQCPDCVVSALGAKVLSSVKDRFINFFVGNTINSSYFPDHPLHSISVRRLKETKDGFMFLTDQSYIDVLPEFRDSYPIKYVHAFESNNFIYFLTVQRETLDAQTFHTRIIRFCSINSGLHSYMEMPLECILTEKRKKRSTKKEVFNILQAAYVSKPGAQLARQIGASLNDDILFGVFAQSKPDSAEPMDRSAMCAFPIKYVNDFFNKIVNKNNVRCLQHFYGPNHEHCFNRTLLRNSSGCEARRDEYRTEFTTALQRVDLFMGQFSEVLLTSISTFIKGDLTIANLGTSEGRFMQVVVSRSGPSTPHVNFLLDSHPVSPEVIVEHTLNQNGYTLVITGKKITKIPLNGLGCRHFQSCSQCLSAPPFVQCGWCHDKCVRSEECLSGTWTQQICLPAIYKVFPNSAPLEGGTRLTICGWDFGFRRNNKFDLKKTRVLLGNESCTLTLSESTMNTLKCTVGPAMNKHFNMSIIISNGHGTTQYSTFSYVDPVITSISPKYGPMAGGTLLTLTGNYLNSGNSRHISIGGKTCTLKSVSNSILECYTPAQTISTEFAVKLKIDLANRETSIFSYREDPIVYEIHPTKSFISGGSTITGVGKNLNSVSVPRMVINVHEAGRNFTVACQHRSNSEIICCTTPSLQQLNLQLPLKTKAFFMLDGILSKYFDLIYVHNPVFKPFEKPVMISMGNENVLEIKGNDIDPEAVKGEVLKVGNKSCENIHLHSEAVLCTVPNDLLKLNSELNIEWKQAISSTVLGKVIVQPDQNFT
T1 sequence (Q75ZY9 25-933 limits assumed): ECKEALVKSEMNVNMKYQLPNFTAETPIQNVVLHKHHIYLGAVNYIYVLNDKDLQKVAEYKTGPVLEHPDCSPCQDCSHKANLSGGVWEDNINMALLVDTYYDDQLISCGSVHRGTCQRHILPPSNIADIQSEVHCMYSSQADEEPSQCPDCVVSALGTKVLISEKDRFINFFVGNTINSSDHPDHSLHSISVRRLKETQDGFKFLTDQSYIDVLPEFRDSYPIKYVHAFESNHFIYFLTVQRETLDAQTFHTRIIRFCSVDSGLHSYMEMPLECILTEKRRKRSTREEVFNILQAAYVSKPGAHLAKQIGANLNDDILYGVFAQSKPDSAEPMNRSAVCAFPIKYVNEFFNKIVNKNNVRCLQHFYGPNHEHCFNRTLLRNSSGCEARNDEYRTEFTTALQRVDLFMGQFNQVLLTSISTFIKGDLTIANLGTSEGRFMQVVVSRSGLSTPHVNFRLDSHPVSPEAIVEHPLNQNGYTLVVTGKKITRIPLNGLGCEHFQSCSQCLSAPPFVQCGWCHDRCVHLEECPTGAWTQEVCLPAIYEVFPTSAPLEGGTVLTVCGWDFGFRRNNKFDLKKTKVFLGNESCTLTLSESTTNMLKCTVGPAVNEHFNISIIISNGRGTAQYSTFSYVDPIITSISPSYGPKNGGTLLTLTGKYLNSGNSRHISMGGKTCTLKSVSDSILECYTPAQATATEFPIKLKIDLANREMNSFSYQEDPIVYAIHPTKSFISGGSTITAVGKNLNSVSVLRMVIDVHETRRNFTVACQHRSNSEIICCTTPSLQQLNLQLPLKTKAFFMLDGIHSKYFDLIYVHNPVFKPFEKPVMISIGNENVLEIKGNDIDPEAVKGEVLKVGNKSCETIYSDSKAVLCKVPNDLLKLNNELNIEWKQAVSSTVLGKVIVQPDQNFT

Consider “Telisotuzumab analog: analog of Telisotuzumab, humanized IgG1 monoclonal antibody targeting MET; SEQ ID NO: 75 and 76 [reference compound]”, for which the “binding to dog MET” value with dog MET (dMET-His) is reported as “no binding affinity”. Further, the “binding to human MET” value in the assay with human MET (hMET-His) [1] was “showed binding affinity”. Moreover, the results for the MFI in the assay on SNU-5 cells, in the assay with NCI-H292 cells and with HCC827 cells were 21700, 6969 and 10344, respectively. Besides, in the assay with SNU-5 cells, the “Percentage of Positive (endocytosis)” value is 36.9%. The KD entry (in [2]; with human EGFR (hEGFR-His)) was “No binding” throughout. Moreover, in the assay with monkey MET (fasMET-His) [3], the “binding to monkey MET” value is “showed binding affinity”. Besides, the “Positive Population” value is 2.32% in the assay on NCI-H292 cells and 0.63% in the assay on HCC827 cells. The koff in the assay with monkey MET (fasMET-His) [4] is 9.41e-05 s⁻¹; with human MET (hMET-His) [5] it was 0.0001 s⁻¹. Further, the results for the kon in the assay on monkey MET (fasMET-His) [4] and in the assay with human MET (hMET-His) [5] were 62600 M⁻¹ s⁻¹ and 103000 M⁻¹ s⁻¹, respectively.

For the origin of these results see patent US20250382373A1, “ANTI-EGFR/MET ANTIBODIES AND USES THEREOF” (Biocytogen Pharmaceuticals (Beijing) Co., Ltd., priority 2022, published 2025).
